Experimental data as given in ChEMBL document CHEMBL6127037, “Design, synthesis, and biological evaluation of imidazolylacetophenone oxime derivatives as novel brain-penetrant agents for Alzheimer's disease treatment” (Eur J Med Chem, 2024).
Activity calls are given as the source filed them. No cut-off for these calls is given here.

Experiments:
BV-2 [1] = assay: Anti-neuroinflammatory activity against LPS-stimulated mouse BV-2 cells assessed as inhibition of NO production at 1 uM; assay type: functional; parameters: scale not given: the % may be the effect or the level left
BV-2 [2] = assay: Anti-neuroinflammatory activity against LPS-stimulated mouse BV-2 cells assessed as inhibition of NO production at 10 uM; assay type: functional; parameters: scale not given: the % may be the effect or the level left
[3] = Cytotoxicity against LPS stimulated mouse BV-2 cells assessed as cell survival at 10 uM by MTT assay; assay type: toxicity, cell-based; conditions: LPS-stimulated BV-2 cells, read-out: Activity
BV-2 [4] = assay: Anti-neuroinflammatory activity against LPS-stimulated mouse BV-2 cells assessed as inhibition of NO production; assay type: functional, cell-based
PC12 = assay: Neuroprotective activity against 6-OHDA induced oxidative damage in […] cells assessed as increase in cell viability preincubated for 4 hrs followed by 6-OHDA stimulation and measured after 24 hrs by MTT assay (reference value: 48.6%); assay type: functional, cell-based; conditions: Rattus norvegicus, dose 1-10 µM, time 28.0 hrs
[5] = Cytotoxicity against […] cells assessed as cell survival at 20 uM by MTT assay; assay type: toxicity, cell-based, Rattus norvegicus; conditions: read-out: Survival
HT-22 = assay: Neuroprotective activity against RSL3 induced ferroptosis in mouse HT-22 cells assessed as increase in cell viability at 10 uM preincubated for 4 hrs followed by RSL3 stimulation and measured after 24 hrs by MTT assay (reference value: 52.1%); assay type: functional; conditions: time 28 hrs
[6] = Cytotoxicity against mouse HT-22 cells assessed as cell survival at 20 uM by MTT assay; assay type: toxicity, cell-based; conditions: read-out: Survival
[7] = molecular target: Amyloid-beta precursor protein (Homo sapiens) (UniProt P05067); assay: Inhibition of self-induced amyloid beta (1 to 42 residues) (unknown origin) aggregation at 5 to 20 uM by thioflavin T based fluorescence analysis; conditions: dose 5-20 µM
[8] = molecular target: Acetylcholinesterase (Electrophorus electricus) (UniProt O42275); assay: Inhibition of electric eel AChE at 20 uM using […] as substrate pretreated for 20 mins prior to DTNB addition for 30 mins followed by substrate addition and measured after 45 mins by Ellman's method relative to control; conditions: time 95.0 min
BV-2 [9] = assay: Antiinflammatory activity against LPS induced mouse BV-2 cells assessed as increase in arginase-1 expression at 0.5 to 2.5 uM incubated for 24 hrs by ELISA; assay type: functional, cell-based; conditions: dose 0.5-2.5 µM
BV-2 [10] = assay: Antiinflammatory activity against LPS induced mouse BV-2 cells assessed as increase in IL-10 expression at 0.5 to 2.5 uM incubated for 24 hrs by ELISA; assay type: functional, cell-based; conditions: dose 0.5-2.5 µM
BV-2 [11] = assay: Antiinflammatory activity against LPS induced mouse BV-2 cells assessed as decrease in TNFalpha expression incubated for 24 hrs by ELISA; assay type: functional, cell-based; conditions: dose 0.1-2.5 µM
BV-2 [12] = assay: Antiinflammatory activity against LPS induced mouse BV-2 cells assessed as decrease in PGE2 expression incubated for 24 hrs by ELISA; assay type: functional, cell-based; conditions: dose 0.1-2.5 µM
BV-2 [13] = assay: Antiinflammatory activity against LPS induced mouse BV-2 cells assessed as decrease in iNOS expression incubated for 24 hrs by Western blotting analysis; assay type: functional, cell-based; conditions: dose 0.1-2.5 µM
BV-2 [14] = assay: Antiinflammatory activity against LPS induced mouse BV-2 cells assessed as decrease in COX2 expression incubated for 24 hrs by Western blotting analysis; assay type: functional, cell-based; conditions: dose 0.1-2.5 µM
[15] = molecular target: Amyloid-beta precursor protein (Homo sapiens) (UniProt P05067); assay: Inhibition of self-induced amyloid beta (1 to 42 residues) (unknown origin) aggregation at 20 uM by thioflavin T based fluorescence analysis

Amyloid-beta precursor protein (Homo sapiens), sequence (P05067 whole entry, the tested form may be a part): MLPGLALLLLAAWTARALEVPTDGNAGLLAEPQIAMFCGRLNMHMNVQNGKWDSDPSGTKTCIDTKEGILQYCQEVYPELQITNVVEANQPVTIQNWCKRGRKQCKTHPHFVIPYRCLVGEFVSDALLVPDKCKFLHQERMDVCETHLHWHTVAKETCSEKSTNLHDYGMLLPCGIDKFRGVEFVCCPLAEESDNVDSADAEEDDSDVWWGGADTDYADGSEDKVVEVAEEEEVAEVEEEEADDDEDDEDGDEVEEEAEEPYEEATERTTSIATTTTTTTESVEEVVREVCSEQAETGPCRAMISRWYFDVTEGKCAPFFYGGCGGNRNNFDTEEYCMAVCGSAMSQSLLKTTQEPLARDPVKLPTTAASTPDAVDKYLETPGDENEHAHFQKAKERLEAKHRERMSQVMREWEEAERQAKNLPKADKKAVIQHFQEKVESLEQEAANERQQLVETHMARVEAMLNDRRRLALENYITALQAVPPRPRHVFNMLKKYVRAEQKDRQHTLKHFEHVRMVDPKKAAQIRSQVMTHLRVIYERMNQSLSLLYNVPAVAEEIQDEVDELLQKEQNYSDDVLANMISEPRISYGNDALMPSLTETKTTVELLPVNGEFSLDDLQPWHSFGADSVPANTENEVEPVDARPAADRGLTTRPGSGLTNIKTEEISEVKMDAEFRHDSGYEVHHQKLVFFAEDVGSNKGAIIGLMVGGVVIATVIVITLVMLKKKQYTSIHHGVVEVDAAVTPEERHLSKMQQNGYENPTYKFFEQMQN
Acetylcholinesterase (Electrophorus electricus), sequence (O42275 24-633 limits assumed): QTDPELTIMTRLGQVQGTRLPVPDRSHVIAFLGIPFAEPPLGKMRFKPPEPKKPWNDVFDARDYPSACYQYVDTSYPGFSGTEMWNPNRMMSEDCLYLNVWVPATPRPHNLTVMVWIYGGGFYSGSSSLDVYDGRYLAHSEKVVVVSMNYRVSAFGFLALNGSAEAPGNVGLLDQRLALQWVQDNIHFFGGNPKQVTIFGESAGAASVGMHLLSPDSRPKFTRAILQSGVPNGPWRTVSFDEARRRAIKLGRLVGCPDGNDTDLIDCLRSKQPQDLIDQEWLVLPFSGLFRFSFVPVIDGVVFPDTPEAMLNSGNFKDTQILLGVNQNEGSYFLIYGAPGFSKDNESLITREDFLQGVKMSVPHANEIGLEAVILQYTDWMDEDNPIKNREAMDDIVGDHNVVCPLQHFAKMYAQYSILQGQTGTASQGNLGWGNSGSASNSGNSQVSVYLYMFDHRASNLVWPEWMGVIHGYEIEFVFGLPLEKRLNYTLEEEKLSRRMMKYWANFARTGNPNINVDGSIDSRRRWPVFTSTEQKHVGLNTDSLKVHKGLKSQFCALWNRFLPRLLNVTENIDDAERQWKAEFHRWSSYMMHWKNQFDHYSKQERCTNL

Row | Structure (SMILES) | Activity (BV-2 [1]) [%] | Activity (BV-2 [2]) [%] | viability at 10 µM [3] [%] | other results
1 | O=C(CCCCCO/N=C(\Cn1ccnc1)c1ccc2c(c1)OCO2)NO | 42.7 | 82.9 | 111 | EC50 (BV-2 [4]): 1090 nM; Activity (PC12): Dose-Dependent Effect; viability at 20 µM [5]: > 95%; Activity (HT-22): 66.7%; viability at 20 µM [6]: > 90%; inhibition [7]: Active
2 | FCCO/N=C(\Cn1ccnc1)c1ccc2c(c1)OCO2 | 69.5 | 99.4 | 116 | EC50 (BV-2 [4]): 490 nM; Activity (PC12): Dose-Dependent Effect; viability at 20 µM [5]: > 95%; Activity (HT-22): 66.6%; viability at 20 µM [6]: > 90%; inhibition [8]: 60.1%; inhibition [7]: Active; Activity (BV-2 [9]): Active; Activity (BV-2 [10]): Active; Activity (BV-2 [11]): Dose-Dependent Effect; Activity (BV-2 [12]): Dose-Dependent Effect; Activity (BV-2 [13]): Dose-Dependent Effect; Activity (BV-2 [14]): Dose-Dependent Effect
3 | C#CCO/N=C(\Cn1ccnc1)c1ccc(C(=O)OCC)cc1 | 34.8 | 73.5 | 115 | –
4 | O=C(CCCC[C@@H]1CCSS1)O/N=C(\Cn1ccnc1)c1ccc2c(c1)OCO2 | 51.8 | 99.7 | 97.5 | EC50 (BV-2 [4]): 760 nM; Activity (PC12): Dose-Dependent Effect; viability at 20 µM [5]: > 95%; Activity (HT-22): 67.7%; viability at 20 µM [6]: > 90%; inhibition [8]: 54.9%; inhibition [15]: inactive
5 | C=C(C)CO/N=C(\Cn1ccnc1)c1ccc(N(C)C)cc1 | 28.1 | 46.3 | 98.6 | –
6 | O=c1c(O)c(-c2ccc(O)c(O)c2)oc2cc(O)cc(O)c12 [QUERCETIN] | – | 52.8 | 91.3 | –
7 | CN(C)c1ccc(/C(Cn2ccnc2)=N/OC(=O)/C=C/c2ccccc2)cc1 | 39.2 | 41.8 | 92.8 | –
8 | O=C(O/N=C(\Cn1ccnc1)c1ccc2c(c1)OCO2)C12CC3CC(CC(C3)C1)C2 | 44.1 | 88.4 | 113 | –
9 | CN(C)c1ccc(/C(Cn2ccnc2)=N/OC(=O)/C=C/c2ccccc2Cl)cc1 | 38.8 | 65.8 | 105 | –
10 | CN(C)c1ccc(/C(Cn2ccnc2)=N/OCc2ccccc2)cc1 | 27.6 | 48.7 | 97.3 | –
11 | O=C(/C=C/c1ccc2c(c1)OCO2)O/N=C(\Cn1ccnc1)c1ccc2c(c1)OCO2 | 35.8 | 73 | 85.2 | –
12 | COc1ccc(/C=C/C(=O)O/N=C(\Cn2ccnc2)c2ccc3c(c2)OCO3)cc1 | 45.6 | 91.3 | 95.9 | –
13 | CN(C)c1ccc(/C(Cn2ccnc2)=N/OC(=O)CCc2ccccc2)cc1 | 31.5 | 31.4 | 92.5 | –
14 | Cc1c(CO)ncn1CC(=O)c1ccc2c(c1)OCO2 | 27.4 | 37.7 | 99.8 | –
15 | COC(=O)CCCCCO/N=C(\Cn1ccnc1)c1ccc2c(c1)OCO2 | 35.4 | 76 | 116 | –
16 | COc1cc(/C=C/C(=O)O/N=C(\Cn2ccnc2)c2ccc3c(c2)OCO3)ccc1O | 39.4 | 67.6 | 89.4 | –

Row | Structure (SMILES) | Activity (BV-2 [1]) [%] | Activity (BV-2 [2]) [%] | viability at 10 µM [3] [%] | other results
17 | C#CCO/N=C(\Cn1ccnc1)c1ccc2c(c1)OCO2 | 45.2 | 84.5 | 95.9 | EC50 (BV-2 [4]): 1180 nM; Activity (PC12): Dose-Dependent Effect; viability at 20 µM [5]: > 95%
18 | FCCCO/N=C(\Cn1ccnc1)c1ccc2c(c1)OCO2 | 31.1 | 65 | 87.7 | –
19 | C#CCO/N=C(\Cn1cnc(CO)c1C)c1ccc2c(c1)OCO2 | 27.6 | 48.7 | 75.8 | –
20 | COC(Cn1ccnc1)c1ccc2c(c1)OCO2 (racemic) | 17.9 | 28 | 76.1 | –
21 | C#CCO/N=C(\Cn1ccnc1)c1ccc(C(=O)OC)cc1 | 36 | 72.7 | 105 | –
22 | O=C(Cn1ccnc1)c1ccc2c(c1)OCO2 | 21.5 | 61.6 | 97.9 | –
23 | C#CCO/N=C(\Cn1ccnc1)c1ccc(N(C)C)cc1 | 30.9 | 49.6 | 103 | EC50 (BV-2 [4]): 6780 nM; Activity (PC12): Dose-Dependent Effect; viability at 20 µM [5]: > 95%; Activity (HT-22): 62.5%; viability at 20 µM [6]: > 90%; inhibition [8]: 70.3%; inhibition [7]: Active
24 | c1cn(CCc2ccc3c(c2)OCO3)cn1 | 19.6 | 47.9 | 93.3 | –
25 | CN(C)c1ccc(/C(Cn2ccnc2)=N/OC(=O)/C=C/c2ccc3c(c2)OCO3)cc1 | 22.2 | 34.2 | 96.7 | EC50 (BV-2 [4]): 15700 nM; Activity (PC12): Dose-Dependent Effect; viability at 20 µM [5]: > 95%
26 | FCCOCCOCCO/N=C(\Cn1ccnc1)c1ccc2c(c1)OCO2 | 24.4 | 53.9 | 99.9 | –
27 | C#CCO/N=C(\Cn1ccnc1)c1ccc(C(=O)NO)cc1 | 36.2 | 70.5 | 109 | EC50 (BV-2 [4]): 5610 nM; Activity (PC12): Dose-Dependent Effect; viability at 20 µM [5]: > 95%
28 | OC(Cn1ccnc1)c1ccc2c(c1)OCO2 (racemic) | 21.4 | 68.9 | 97.1 | –
29 | C#CCO/N=C(/Cn1ccnc1)c1ccc2c(c1)OCO2 | 13.4 | 25.5 | 98.4 | EC50 (BV-2 [4]): > 20000 nM; Activity (PC12): Dose-Dependent Effect; viability at 20 µM [5]: > 95%
30 | CN(C)c1ccc(/C(Cn2ccnc2)=N/OC(=O)/C=C/c2ccc(Cl)cc2)cc1 | 41.2 | 54.1 | 85.6 | –
31 | CN(C)c1ccc(/C(Cn2ccnc2)=N/OC/C=C/c2ccccc2)cc1 | 22.5 | 40.7 | 98.1 | –
